Converted amounts (≈) assume the structure as drawn.
Columns and labels:
Salmonella typhimurium = experiment: In vitro antibacterial activity against Salmonella Typhimurium; format: functional, Salmonella enterica subsp. enterica serovar Typhimurium
Streptococcus pyogenes = experiment: In vitro antibacterial activity against Streptococcus pyogenes 77A; format: functional
Escherichia coli [1] = experiment: In vitro antibacterial activity against Escherichia coli 078; format: functional
[2] = target: T1, Dipeptidase 1 (Sus scrofa) (UniProt P22412); experiment: Relative hydrolysis to meropenem by partially purified porcine renal Dehydropeptidase-1 was reported.; parameters: scale not given: the % may be the effect or the level left
T1 sequence (whole entry): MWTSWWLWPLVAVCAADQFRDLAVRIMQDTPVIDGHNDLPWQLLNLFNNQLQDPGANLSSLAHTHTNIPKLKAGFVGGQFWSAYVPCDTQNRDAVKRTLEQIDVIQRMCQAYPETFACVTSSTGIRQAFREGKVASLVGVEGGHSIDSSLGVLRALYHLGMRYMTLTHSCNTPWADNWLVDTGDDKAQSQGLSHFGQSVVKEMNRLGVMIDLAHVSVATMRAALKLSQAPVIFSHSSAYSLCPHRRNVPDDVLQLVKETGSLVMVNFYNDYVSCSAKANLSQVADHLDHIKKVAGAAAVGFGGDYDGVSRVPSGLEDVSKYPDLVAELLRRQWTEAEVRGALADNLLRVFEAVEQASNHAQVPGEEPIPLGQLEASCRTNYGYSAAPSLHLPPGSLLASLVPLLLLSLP

Escherichia coli [3] = experiment: In vitro antibacterial activity against Escherichia coli 1507E; format: functional
Enterococcus faecium = experiment: In vitro antibacterial activity against Streptococcus faecium MD 8b; format: functional
Enterobacter cloacae = experiment: In vitro antibacterial activity against Enterobacter cloacae 1321E; format: functional
Klebsiella aerogenes = experiment: In vitro antibacterial activity against Klebsiella aerogenes 1522E; format: functional
Pseudomonas aeruginosa [4] = experiment: In vitro antibacterial activity against Pseudomonas aeruginosa 1592E; format: functional
Pseudomonas aeruginosa [5] = experiment: In vitro antibacterial activity against Pseudomonas aeruginosa 1771M; format: functional
Staphylococcus aureus = experiment: In vitro antibacterial activity against Staphylococcus aureus SG 511; format: functional
[6] = Area under curve (AUC) was determined in mice at a single subcutaneous administration of 40 mg/kg (n=4); format: ADME, organism-based; parameters: dose 40 mg/kg, route subcutaneous; settings: mouse, in vivo, sc
Mus musculus [7] = experiment: In vivo therapeutic efficacy was determined against Staphylococcus aureus Y-80-1953 by a single sc administration in mice; format: functional; settings: read-out: PD50
Mus musculus [8] = experiment: In vivo therapeutic efficacy was determined against Streptococcus pyogenes 77A by a single sc administration in mice; format: functional; settings: read-out: PD50
Mus musculus [9] = experiment: In vivo therapeutic efficacy was determined against Pseudomonas aeruginosa 1771M by a single sc administration in mice; format: functional; settings: read-out: PD50
[10] = Maximum time was determined in mice at a single subcutaneous administration of 40 mg/kg (n=4); format: ADME, organism-based; parameters: dose 40 mg/kg, route subcutaneous; settings: mouse, in vivo, sc
Mus musculus [11] = experiment: In vivo therapeutic efficacy was determined against Escherichia coli 078 by a single sc administration in mice; format: functional; settings: read-out: PD50
[12] = Maximum plasma concentration was determined in mice at a single subcutaneous administration of 40 mg/kg (n=4); format: ADME, organism-based; parameters: dose 40 mg/kg, route subcutaneous; settings: mouse, sc
[13] = Half life was determined in mice at a single subcutaneous administration of 40 mg/kg (n=4); format: ADME, organism-based; parameters: dose 40 mg/kg, route subcutaneous; settings: mouse, in vivo, sc
[14] = Salmonella enterica, read-out: MIC
[15] = Streptococcus pyogenes, read-out: MIC
[16] = Escherichia coli, read-out: MIC
[17] = Enterococcus faecium, read-out: MIC
[18] = Enterobacter cloacae, read-out: MIC
[19] = Klebsiella aerogenes, read-out: MIC
[20] = Pseudomonas aeruginosa, read-out: MIC
[21] = Staphylococcus aureus, read-out: MIC

Row | Structure (SMILES) | MIC (Salmonella typhimurium; [14]) [µg/mL] | MIC (Streptococcus pyogenes; [15]) [µg/mL] | MIC (Escherichia coli [1]; [16]) [µg/mL] | Stability [2] [%] | MIC (Escherichia coli [3]) [µg/mL] | MIC (Enterococcus faecium; [17]) [µg/mL] | MIC (Enterobacter cloacae; [18]) [µg/mL] | MIC (Klebsiella aerogenes; [19]) [µg/mL] | MIC (Pseudomonas aeruginosa [4]; [20]) [µg/mL] | MIC (Pseudomonas aeruginosa [5]; [20]) [µg/mL] | MIC (Staphylococcus aureus; [21]) [µg/mL] | other results
1 | C[C@@H](O)[C@H]1C(=O)N2C(C(=O)O)=C(SCCNC=N)C[C@H]12 [IMIPENEM ANHYDROUS] | 0.781 (≈ 2.61 µM) | 0.004 (≈ 0.0134 µM) | 0.098 (≈ 0.327 µM) | 19 | 0.195 (≈ 0.651 µM) | 1.56 (≈ 5.22 µM) | 0.195 (≈ 0.651 µM) | 0.391 (≈ 1.31 µM) | 0.781 (≈ 2.61 µM) | 0.195 (≈ 0.651 µM) | 0.013 (≈ 0.0434 µM) | –
2 | C[C@@H](O)[C@H]1C(=O)N2C(C(=O)O)=C(S[C@H]3CN[C@H](C(=O)N4C[C@@H](O)[C@H](O)C4)C3)[C@H](C)[C@H]12 | 0.391 (≈ 0.886 µM) | 0.013 (≈ 0.0294 µM) | 0.098 (≈ 0.222 µM) | – | 0.195 (≈ 0.442 µM) | 12.5 (≈ 28.3 µM) | 0.195 (≈ 0.442 µM) | 0.195 (≈ 0.442 µM) | 100 (≈ 226 µM) | 0.391 (≈ 0.886 µM) | 0.195 (≈ 0.442 µM) | –
3 | CC(=O)O[C@H]1CN(C(=O)[C@@H]2C[C@H](SC3=C(C(=O)O)N4C(=O)[C@H]([C@@H](C)O)[C@H]4[C@H]3C)CN2)C[C@@H]1OC(C)=O (stereo in doubt; 1f) [listing 1 of 2 here] | – | – | – | – | – | – | – | – | – | – | – | MIC (Salmonella typhimurium): 0.049 µg/mL (≈ 0.0932 µM); MIC (Streptococcus pyogenes): 0.007 µg/mL (≈ 0.0133 µM); MIC (Escherichia coli [1]): 0.025 µg/mL (≈ 0.0476 µM); MIC (Enterococcus faecium): 6.25 µg/mL (≈ 11.9 µM); MIC (Enterobacter cloacae): 0.013 µg/mL (≈ 0.0247 µM); MIC (Klebsiella aerogenes): 0.049 µg/mL (≈ 0.0932 µM); MIC (Pseudomonas aeruginosa [4]): 1.563 µg/mL (≈ 2.97 µM); MIC (Pseudomonas aeruginosa [5]): 0.195 µg/mL (≈ 0.371 µM); MIC (Staphylococcus aureus): 0.195 µg/mL (≈ 0.371 µM)
4 | CC(=O)O[C@H]1CN(C(=O)[C@@H]2C[C@H](SC3=C(C(=O)O)N4C(=O)[C@H]([C@@H](C)O)[C@H]4[C@H]3C)CN2)C[C@@H]1OC(C)=O (stereo in doubt; 1f) [listing 2 of 2 here] | – | – | – | 66 | – | – | – | – | – | – | – | –
5 | C[C@@H](O)[C@H]1C(=O)N2C(C(=O)O)=C(S[C@H]3CN[C@H](C(=O)N4C[C@H](O)[C@@H](O)C4)C3)[C@H](C)[C@H]12 | 0.195 (≈ 0.442 µM) | 0.025 (≈ 0.0566 µM) | 0.098 (≈ 0.222 µM) | – | 0.098 (≈ 0.222 µM) | 25 (≈ 56.6 µM) | 0.195 (≈ 0.442 µM) | 0.195 (≈ 0.442 µM) | 100 (≈ 226 µM) | 0.781 (≈ 1.77 µM) | 0.195 (≈ 0.442 µM) | –
6 | C[C@@H](O)[C@H]1C(=O)N2C(C(=O)O)=C(S[C@@H]3CN[C@H](C(=O)N4C[C@H](OC(N)=O)[C@@H](OC(N)=O)C4)C3)[C@H](C)[C@H]12 | 0.049 (≈ 0.0929 µM) | 0.025 (≈ 0.0474 µM) | 0.025 (≈ 0.0474 µM) | 53 | 0.025 (≈ 0.0474 µM) | 6.25 (≈ 11.8 µM) | 0.025 (≈ 0.0474 µM) | 0.049 (≈ 0.0929 µM) | 0.781 (≈ 1.48 µM) | 0.391 (≈ 0.741 µM) | 0.195 (≈ 0.37 µM) | –
7 | C[C@@H](O)[C@H]1C(=O)N2C(C(=O)O)=C(S[C@@H]3CN[C@H](C(=O)N(C)C)C3)[C@H](C)[C@H]12 [MEROPENEM] | 0.025 (≈ 0.0652 µM) | 0.002 (≈ 0.00522 µM) | 0.013 (≈ 0.0339 µM) | 100 | 0.025 (≈ 0.0652 µM) | 12.5 (≈ 32.6 µM) | 0.025 (≈ 0.0652 µM) | 0.049 (≈ 0.128 µM) | 0.195 (≈ 0.509 µM) | 0.049 (≈ 0.128 µM) | 0.098 (≈ 0.256 µM) | AUC [6]: 6860 ng·h/mL; ED50 (Mus musculus [7]): 11.1 mg/kg; ED50 (Mus musculus [8]): 4.55 mg/kg; ED50 (Mus musculus [9]): 4.26 mg/kg; Tmax [10]: 10.2 min; ED50 (Mus musculus [11]): 0.65 mg/kg; Cmax [12]: 15600 ng/mL; half-life [13]: 16.2 min
8 | CC(=O)O[C@H]1CN(C(=O)[C@@H]2C[C@H](SC3=C(C(=O)O)N4C(=O)[C@H]([C@@H](C)O)[C@H]4[C@H]3C)CN2)C[C@@H]1OC(C)=O (stereo in doubt; 1a) [listing 1 of 2 here] | – | – | – | 63 | – | – | – | – | – | – | – | –
9 | CC(=O)O[C@@H]1CN(C(=O)[C@@H]2C[C@H](SC3=C(C(=O)O)N4C(=O)[C@H]([C@@H](C)O)[C@H]4[C@H]3C)CN2)C[C@H]1OC(C)=O | 0.049 (≈ 0.0932 µM) | 0.007 (≈ 0.0133 µM) | 0.013 (≈ 0.0247 µM) | 50 | 0.025 (≈ 0.0476 µM) | 6.25 (≈ 11.9 µM) | 0.013 (≈ 0.0247 µM) | 0.049 (≈ 0.0932 µM) | 0.098 (≈ 0.186 µM) | 0.098 (≈ 0.186 µM) | 0.195 (≈ 0.371 µM) | –
10 | CC(=O)O[C@H]1CN(C(=O)[C@@H]2C[C@H](SC3=C(C(=O)O)N4C(=O)[C@H]([C@@H](C)O)[C@H]4[C@H]3C)CN2)C[C@@H]1OC(C)=O (stereo in doubt; 1a) [listing 2 of 2 here] | 0.049 (≈ 0.0932 µM) | 0.007 (≈ 0.0133 µM) | 0.013 (≈ 0.0247 µM) | – | 0.025 (≈ 0.0476 µM) | 6.25 (≈ 11.9 µM) | 0.013 (≈ 0.0247 µM) | 0.049 (≈ 0.0932 µM) | – | 0.098 (≈ 0.186 µM) | 0.098 (≈ 0.186 µM) | AUC [6]: 6830 ng·h/mL; ED50 (Mus musculus [7]): 2.18 mg/kg; ED50 (Mus musculus [8]): 4.79 mg/kg; ED50 (Mus musculus [9]): 3.93 mg/kg; Tmax [10]: 10.2 min; MIC (Pseudomonas aeruginosa [4]): 0.195 µg/mL (≈ 0.371 µM); ED50 (Mus musculus [11]): 0.94 mg/kg; Cmax [12]: 16600 ng/mL; half-life [13]: 15 min

— ChEMBL document CHEMBL1131843, “Synthesis and biological evaluation of novel 1beta-methylcarbapenems having a new moiety at C-2” (Bioorg Med Chem Lett, 1999)
